Experimental data reported in patent publication US20130310387A1, “Monocyclic Heteroaryl Cycloalkyldiamine Derivatives” (NOVARTIS AG, priority 2012, published 2013).

Key:
Format in all cases: cell-based
OCI-Ly10 cells = test: B-cell lymphoma cell proliferation (WST-1 assay), OCI-Ly10; conditions: Homo sapiens, 72 h; OCI-Ly10, 3 days of incubation
Description: Cell proliferation was determined using the WST-1 assay (Roche, Mannheim, Germany), which measures the metabolic activity of the cells. Briefly, 5×10^5 TMD-8, OCI-Ly3, and OCI-Ly10 cells/well and 10×10^5 HBL-1 cells/well were seeded in triplicate in 96-well plates and were incubated with various concentrations of compounds to be tested for 3 days. The cell proliferation reagent WST-1 (10 μl/well) was added to the cells for 1-2 hours depending on the cell type which were cultured in 200 μl of medium. The absorbance was then measured with an enzyme-linked immunosorbent assay plate reader at a wavelength of 450 nm.

[1] = tested on: SLP-76 phosphorylation in human whole blood monocytes; test: FcR stimulation-induced SLP-76 phosphorylation in human whole blood monocytes; conditions: Monocyte, 5 min, anti CD32 stimulation 5 min, flow cytometry, read-out: Fc Recepor stimulation induced SLP-76 phosphorylation in human whole blood monocytes, IC50
From the text: After lysis of erythrocytes and washings, the cell pellet was permeabilized with ice-cold methanol 90%. The permeabilized cells were washed and stained with anti CD14 (eBioscience) to detect monocytes and anti P-SLP76 ([…]) (BD Biosciences) and quantified by flow cytometry.

[2] = tested on: phosphorylation of BLNK in Ramos B cells; test: Anti IgM-induced phosphorylation of BLNK in Ramos B cells; conditions: Homo sapiens, 0.25 h, anti IgM 15 min, flow cytometry anti-BLNK (pY84)
Description: Anti IgM-induced phosphorylation of BLNK (BLNK=B cell linker (SLP65=SH2 domain containing leukocyte protein of 65 kDa)) in Ramos B cells: Ramos B cells in a volume of 25 μl were incubated with 25 μl of the compound solution at 2-fold the desired final concentration for 30 min. at 37° C. Then 50 μL anti IgM was added, mixed and incubated for 15 min. at 37° C. In each experiment 8-fold serial dilutions of compounds were tested. The stimulation was stopped by addition of 100 μL/well of PFA (para formaldehyde) I PBS (phosphate buffered saline) (final conc. 2% PFA) for fixation and incubated for 15 min. at 37° C., then centrifuged at 1300 rpm for 3 min and permeabilized by resuspending the cell pellet in 100 μL methanol 90% and further incubated for 30 min at 4° C. The cells were then washed and phosphoproteins were detected by flow cytometry using fluorescently labeled anti-BLNK ([…]) (BD Biosciences).

`NC(=O)c1nnc(N[C@@H]2CCCC[C@@H]2N)nc1Nc1cccc2cc[nH]c12` [Example 1.1, 3-((1R,2S)-2-Amino-cyclohexylamino)-5-(1H-indol-7-ylamino)-[1,2,4]triazine-6-carboxylic acid amide] gave a GI50 (OCI-Ly10 cells) of 25 nM, an IC50 [1] of 378 nM and an IC50 [2] of 106 nM.
